Reference: article PMC4230215, “Lipolytic Potential of Aspergillus japonicus LAB01: Production, Partial Purification, and Characterisation of an Extracellular Lipase” (BioMed Research International, 2014)

Test system: T1, extracellular lipase from A. japonicus LAB01
T1 construct: about 25 kDa on SDS-PAGE
Experiment: spectrophotometric p-nitrophenol release at […] nm, Michaelis-Menten hyperbola regression
Type: biochemical, Aspergillus japonicus
Details: Tris-HCl pH 8.0, 37 °C, Triton X-100 and gum arabic emulsion, 2-propanol; 0-1.4 mM substrate; partially purified enzyme; read-out: apparent KM

CCCCCCCCCCCCCCCC(=O)Oc1ccc([N+](=O)[O-])cc1 [p-NPP, p-nitrophenyl palmitate]
Km: 130 µM
